Laboratory results as given in patent publication US7811760B2, “Vector and method for detecting the change in transcription amount” (priority 2006, dated 2010).

Biological target: T1, aryl hydrocarbon receptor (Rattus norvegicus, UniProt P41738, Q794H)
T1 construct: The SD-line rat AhR gene-coding region was amplified from the reverse-transcribed sample by means of PCR; V5-His (C-terminal tag of vector pcDNA4/V5-His B); expressed in transfected cells; host or cells: mouse neuroblastoma Neuro2a, transient transfection with LIPOFECTAMINE 2000
T1 sequence (P41738 10-853 Q794H): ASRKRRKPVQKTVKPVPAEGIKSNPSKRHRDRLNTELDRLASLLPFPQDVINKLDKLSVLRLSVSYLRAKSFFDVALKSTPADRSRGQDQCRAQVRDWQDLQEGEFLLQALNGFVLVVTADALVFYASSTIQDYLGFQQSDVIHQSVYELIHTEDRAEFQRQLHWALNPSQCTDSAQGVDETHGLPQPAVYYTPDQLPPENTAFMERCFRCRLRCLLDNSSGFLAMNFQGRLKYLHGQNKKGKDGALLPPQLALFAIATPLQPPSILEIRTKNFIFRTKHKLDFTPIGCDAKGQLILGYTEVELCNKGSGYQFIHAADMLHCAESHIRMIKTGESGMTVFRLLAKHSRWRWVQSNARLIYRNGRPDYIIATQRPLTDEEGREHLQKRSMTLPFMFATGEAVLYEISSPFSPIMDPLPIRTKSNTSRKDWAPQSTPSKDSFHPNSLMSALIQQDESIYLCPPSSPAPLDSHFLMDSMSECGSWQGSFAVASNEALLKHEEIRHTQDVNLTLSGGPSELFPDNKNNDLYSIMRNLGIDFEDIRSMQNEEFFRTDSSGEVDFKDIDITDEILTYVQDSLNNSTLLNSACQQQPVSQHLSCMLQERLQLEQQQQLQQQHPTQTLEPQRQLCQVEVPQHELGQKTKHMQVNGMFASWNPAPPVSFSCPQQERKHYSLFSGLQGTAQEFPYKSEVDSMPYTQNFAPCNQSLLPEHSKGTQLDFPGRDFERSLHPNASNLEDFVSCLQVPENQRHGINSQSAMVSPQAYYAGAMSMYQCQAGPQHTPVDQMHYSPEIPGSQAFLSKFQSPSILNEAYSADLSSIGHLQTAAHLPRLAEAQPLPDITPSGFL
Test: Reporter gene assay in Neuro2a with pTHE100/Luc, pTHE100×3/Luc and pTHE100×5/Luc (tandem copies of SEQ ID No: 3)
Format: cell-based, SD-line rat
From the text: The terminal of the “region of SEQ ID No: 3 amplified by PCR in Example 6” was phosphorylated with 5′-polynucleotide kinase (Takara Bio Inc.), and then, the regions of SEQ ID No: 3 were ligated in tandem with each other by using a ligation kit (Toyobo). The ligated DNA fragment was digested with restriction enzymes KpnI and NheI, and subjected to agarose gel electrophoresis. DNA fragment consisting of three copies of the regions of SEQ ID No: 3 linked in tandem and DNA fragment consisting of five copies of the regions of SEQ ID No: 3 linked in tandem were excised from the gel based on their molecular weight, and purified with a QIAQUICK Gel Extraction Kit. These DNA fragments were digested with KpnI and NheI, and incorporated into a vector pTHE100/Luc containing no region of SEQ ID No: 3, to prepare a recombinant vector pTHE100×3/Luc containing three tandem copies of the regions of SEQ ID No: 3, and a recombinant vector pTHE100×5/Luc containing five tandem copies of the regions of SEQ ID No: 3 (FIG. 7A). pTH100/Luc, pTHE100×3/Luc, and pTHE100×5/Luc were introduced into Neuro2a by a method similar to that in Example 3. The obtained cell was exposed to 10 nM TCDD, and then, the change in the expression amount of the reporter gene was examined (FIG. 7B).
Further, the transcriptional response to the TCDD concentration and the transcriptional response to dioxin congeners were evaluated by using the pTHE100×3/Luc. The transcriptional response to the TCDD concentration was determined by a method similar to that in Example 3, specifically, by incorporating the vector pTHE100×3/Luc into Neuro2a, exposing the obtained cell to 1 to 10,000 μM of TCDD, and measuring the change in the expression amount of the reporter gene. […] On the other hand, the transcriptional response to dioxin congeners was determined by a method similar to that in Example 3, specifically, by incorporating the vector pTHE100×3/Luc into Neuro2a, exposing the obtained cell to eight kinds of dioxin congeners including TCDD, and measuring the activity of these congeners on transcriptional regulation. […]

SMILES: Clc1cc2c(cc1Cl)Oc1cc(Cl)c(Cl)cc1O2 [TCDD, 2,3,7,8-tetrachlorodibenzo-p-dioxine]
- increase in the activity of the test substance on transcriptional regulation, by number of copies of SEQ ID No: 3 (10 nM TCDD, pTH100/Luc, pTHE100×5/Luc): highest with the vector pTHE100×3/Luc
- influence of dioxin congeners on transcriptional regulation (eight kinds of dioxin congeners tested): exerted influence on transcriptional regulation
- expression amount of the reporter gene versus TCDD concentration (exposure 1 to 10,000 μM of TCDD (so in the source)): increased statistically significantly with the increase in TCDD concentration up to 10 μM
